According to patent US5830920A, “Sulfuric acid esters of sugar alcohols” (Hoffmann-La Roche Inc., priority 1995, dated 1998):

Experiments:
factor Xa = factor Xa (Bos taurus, UniProt P00743); assay: Inhibition of factor Xa in the chromogenic substrate assay; assay type: biochemical; details: plasma, antithrombin III, substrate S-2222, 37° C., pH 8.4
Procedure: [Worded in the source for another target; used here, by the source, with some conditions changed.] (§1) The blood coagulation-inhibiting activity was determined as follows:
(§2) The buffer solution used consisted of 50 mM Tris buffer, 180 mM NaCl, 7.5 mM EDTA Na2, 1% PEG 6000 and 0.02% Tween 80, pH 8.4. The assay solution consisted of 50 μl of buffer, 30 μl of antithombin III (1 U/ml, Kabi Diagnostica) and 20 μl of plasma which contained various concentrations of test compounds. 30 μl of sample solution and 20 μl of water with 180 μl of thrombin (1 U/ml, thrombin reagent, Roche Basle) were added to the test cuvette in the automatic analyzer.

[1] = system: neointima in rat carotids; assay: In vivo assay for antiproliferative activity in damaged rat carotids (neointima after balloonisation); design: species or system rat (male Wistar Kyoto); details: 0.3 mg/kg/h i.v.
Procedure: In vivo assay for determining the antiproliferative activity of the compounds in accordance with the invention in damaged rat carotids.
The left carotids of male Wistar Kyoto rats (300-400 g) were, after narcosis, damaged with a 2F embolectomy catheter by pulling the catheter in the pumped-up state through the vessel three times. After wound management, the animals were kept in pairs with standard feed and water ad libidum.
The compounds were administered in concentrations of 0.3-1 mg/kg/h i.v. For this purpose, an osmotic minipump was implanted under the dorsal skin of the animals during the narcosis and was connected with the jugular vein. Thus, the compounds could be administered constantly during the entire test period of 14 days.
After 14 days, proliferative tissue (neointima) had formed, the size of which could be determined morphometrically on histological cross-sections.In order to do this, the rats were sacrificed and perfusion-fixed with glutaraldehyde.

rat smooth muscle cells = assay: Antiproliferative activity in cell cultures (rat smooth muscle cells), relative to heparin; assay type: cell-based; details: 100 μg/ml, 48 h, heparin at same concentration = reference
Procedure: The antiproliferative activity of a substance is expressed as the ri value which is a comparative value to the corresponding activity of heparin and which was determined in cell cultures as follows: rat smooth muscle cells were applied to cell culture plates in a density of 8×10^3 cells/well, medium: DMEM (Dulbecco Modified Eagle Medium) with 10% FCS (fetal calf serum); cultivation at 37° C. and 5% CO2. After 4 hours, the number of adhered cells was determined and the substances to be tested (100 μg/ml, dissolved in H2 O) were added. […] Subsequently,the cells were incubated for 48 h. and thereafter the cell count was determined once more.
The inhibition i of the cell growth, that is, the reduction in the growth rate of the cells in per cent compared to the control, was calculated from these values. [formula] with the growth rate μ being calculated as [formula] in which Z is the number of cells and d is the time in days.
Finally, ri --the relative inhibitory activity--which expresses the activity of a substance (at 100 μg/ml) in comparison to the activity of heparin in the same concentration in the same experiment, was calculated [formula] Blood coagulation inhibition

thrombin = target: T1, thrombin (Bos taurus, UniProt P00735); assay: Inhibition of thrombin in the chromogenic substrate assay; assay type: biochemical; details: plasma, antithrombin III, substrate S-2238, 37° C., pH 8.4
T1 construct: purchased Roche Basle
Procedure: as §1, §2

Sequence of factor Xa (P00743 234-492 limits assumed): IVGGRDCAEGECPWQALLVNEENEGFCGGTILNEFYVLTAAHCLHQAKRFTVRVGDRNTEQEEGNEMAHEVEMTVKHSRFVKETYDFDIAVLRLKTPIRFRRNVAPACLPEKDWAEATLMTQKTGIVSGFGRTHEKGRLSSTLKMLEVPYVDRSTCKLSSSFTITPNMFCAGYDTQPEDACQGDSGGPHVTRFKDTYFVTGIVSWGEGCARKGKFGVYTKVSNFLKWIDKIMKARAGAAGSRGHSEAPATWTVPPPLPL
Sequence of factor Xa (P00743 41-180 limits assumed): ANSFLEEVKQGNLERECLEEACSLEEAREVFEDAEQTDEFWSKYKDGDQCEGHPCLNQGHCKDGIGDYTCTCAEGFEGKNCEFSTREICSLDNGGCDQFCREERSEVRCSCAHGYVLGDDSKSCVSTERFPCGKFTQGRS

Row | Anticoagulant Activity IC50 Factor Xa (factor Xa) [µg/mL] | Anticoagulant Activity IC50 Thrombin (thrombin) [µg/mL] | Substance | effect on neointima compared to concentrated heparin ([1]; 14 days, comparison with heparin) | cross sectional area of the neointima in rat carotids 14 days after balloonisation ([1]; osmotic minipump) | Antiproliferative Activity ri (relative inhibitory activity compared to heparin) (rat smooth muscle cells)
1 | > 1000 | > 1000 | 1,6-Bis-O-[6-(2,3,4,5,6-penta-O-sulfo-D-glucit-1-ylcarbamoyl)-naphthalen-2- yl]-2,3,4,5-tetra-O-sulfo-galactitol tetradecasodium salt [Example 16] |  |  | 2.1
2 | > 1000 | > 1000 | 1,6-bis-O-[4-[(E)-2-[benzyl 2,6-didesoxy-2-[4-(2,3,4,5,6-penta-O-sulfo-D-glucit-1-ylamino)-3-nitro-benzoyl-amino]-3,4-di-O-sulfo-a-D-glucopyranosid-6-ylcarbamoyl]-vinyl]-phenyl]-2,3,4,5-tetra-O-sulfo-galactitol octadecasodium salt [Example 61] |  |  | 2.4
3 | > 1000 | > 1000 | 1,6-bis-O-[6-[(S)-2,3-bis-sulfooxy-propoxy]-3-(2,3,4,5,6-penta-O-sulfo-D-glucit 1-ylcarbamoyl)-naphthalen-2-yl]-2,3,4,5-tetra-O-sulfo-galactitol octadecasodium salt [Example 22] |  |  | 2.1
4 | > 1000 | > 1000 | 1,6-bis-O-[6-[benzyl 2,6-didesoxy-2-[3-nitro-4-(2,3,4,5,6-penta-O-sulfo-D-glucit-1-ylamino)-benzoylamino]-3,4-di-O-sulfo-a-D-glucopyranosid-6-ylcarbamoyl]-naphthalen-2-yl]-2,3,4,5-tetra-O-sulfo-galactitol octadecasodium salt [Example 59] |  |  | 1.8
5 | 2.7 | 1.9 | Heparin [reference compound] |  |  | 1.0

Second part, the substance before the results:

Row | Substance | Anticoagulant Activity IC50 Factor Xa (factor Xa) [µg/mL] | Anticoagulant Activity IC50 Thrombin (thrombin) [µg/mL] | effect on neointima compared to concentrated heparin ([1]; 14 days, comparison with heparin) | cross sectional area of the neointima in rat carotids 14 days after balloonisation ([1]; osmotic minipump) | Antiproliferative Activity ri (relative inhibitory activity compared to heparin) (rat smooth muscle cells)
6 | 1,6-Bis-O-[4-[2-(2,3,4,5,6-penta-O-sulfo-D-glucit-1-ylcarbamoyl)-ethyl]-phenyl]-2,3,4,5-tetra-O-sulfo-galactitol tetradecasodium salt [Example 6] | > 1000 | > 1000 | comparable effect to that of concentrated heparin | significantly reduced (p<0.01, t-test) | 0.7
7 | 1,6-bis-O-[3-(2,3,4,5,6-penta-O-sulfo-D-glucit-1-ylcarbamoyl)-naphthalen-2-yl]-2,3,4,5-tetra-O-sulfo-galactitol tetradecasodium salt [Example 14] | > 1000 | > 1000 |  |  | 1.5
8 | 1,6-bis-O-[3-(2,3,4,5-tetra-O-sulfo-D-arabinit-1-yloxy)-naphthalen-2-yl]-2,3,4,5-tetra-O-sulfo-galactitol dodecasodium salt [Example 40] | > 1000 | > 1000 |  |  | 1.4
9 | 1,6-bis-O-[3-[benzyl 2,6-didesoxy-6-(2,3,4,5,6-penta-O-sulfo-D-gluconoylamino)-3,4-di-O-sulfo-a-D-glucopyranosid-2-ylcarbamoyl]-naphthalen-1-yl]-2,3,4,5-tetra-O-sulfo-galactitol octadecasodium salt [Example 56] | > 1000 | > 1000 |  |  | 1.7
10 | 1,6-bis-O-[3-biphenyl-4-ylmethoxy-5-(2,3,4,5,6-penta-O-sulfo-D-glucit-1-ylcarbamoyl)-phenyl]-2,3,4,5-tetra-O-sulfo-galactitol tetradecasodium salt [Example 17] | > 1000 | > 1000 |  |  | 1.5
11 | 1,6-bis-O-[4-[2-[4-(2,3,4,5,6-penta-O-sulfo-D-glucit-1-ylcarbamoyl)-phenyl]-ethyl]-phenyl]-2,3,4,5-tetra-O-sulfo-galactitol tetradecasodium salt [Example 11] | > 1000 | > 1000 |  |  | 2.2
12 | 1,6-bis-O-[4-[2-[benzyl-2,6-didesoxy-6-(2,3,4,5,6-penta-O-sulfo-D-gluconoylamino)-3,4-di-O-sulfo-a-D-glucopyranosid-2-ylcarbamoyl]-ethyl]-phenyl]-2,3,4,5-tetra-O-sulfo-galactitol octadecasodium salt [Example 58] | > 1000 | > 1000 |  |  | 1.8
13 | 1,6-bis-O-[4-[4-O-[4-[(E)-2-(2,3,4,5,6-penta-O-sulfo-D-glucit-1-ylcarbamoyl)-vinyl]-phenyl]-2,3-di-O-sulfo-D-threit-1-yloxy]-phenyl]-2,3,4,5-tetra-O- sulfo-galactitol octadecasodium salt [Example 48] | > 1000 | > 1000 |  |  | 2.7
14 | 1,6-bis-O-[4-[4-O-[4-[(E)-2-[methyl-(2,3,4,5,6-penta-O-sulfo-D-glucit-1-yl)-carbamoyl]-vinyl]-phenyl]-2,3-di-O-sulfo-D-threit-1-yloxy]-phenyl]-2,3,4,5-tetra-O-sulfo-galactitol octadecasodium salt [Example 52] | > 1000 | > 1000 |  |  | 0.8
15 | 1,6-didesoxy-2,3,4,5-tetra-O-sulfo-1,6-bis-[3-(2,3,4,5-tetra-O-sulfo-D-arabinit-1-yloxy)-naphthalen-2-ylcarbonylamino]-galactitol dodecasodium salt [Example 45] | > 1000 | > 1000 |  |  | 1.4
16 | 2,3,4,5-tetra-O-sulfo-1,6-bis-O-[4-[4-(2,3,4,5-tetra-O-sulfo-D-arabinit-1- yloxy)-benzyl]-phenyl]-D-mannitol dodecasodium salt [Example 43] | > 1000 | > 1000 |  |  | 1.3
